The text below walks through data of patent US10532106B2 (priority 2014, dated 2020).

The nature of series [1]: human plasma. Conditions: up to 24 hrs.
The nature of series [2]: rat plasma. Conditions: up to 24 hrs.
Series [3] can be described thus: mouse plasma. Conditions: up to 24 hrs.
Series [4] is described as follows: Degradation products in mouse plasma by MALDI-TOF (Method #1). Type of series: in vitro ADME. As for the experimental part:
A rapid plasma stability profiling assay was developed that employed mass spectrometric detection (MALDI-TOF, Voyager DE, Applied Biosystems) of the parent mass as well as plasma-protease induced fragments thereof. By assessing the nature of the fragments, preferred cleavage sites can be determined. Here, a 1-1.5 mM peptide stock (in DMSO) was directly diluted into mouse/rat/human plasma (Sera labs, using citrate as anticoagulant), giving a final concentration of 50 μM peptide, and incubated for up to 48 hrs at 37° C. 5 μL samples were taken at appropriate time points and frozen at −80° C. For analysis, the samples were defrosted, mixed with 25 μL of 3:3:1 acetonitrile:methanol:water, and centrifuged at 13 k for 5 min. 5 μL of the peptide-containing supernatant was aspirated and mixed with 30 mM ammonium bicarbonate in a 1:1 mixture of acetonitrile:H2O. 1 μL of this was then spotted on the MALDI plate, dried, and Matrix (alpha-cyanocinnamic acid, Sigma, prepared as a saturated solution in 1:1 acetonitrile:water containing 0.1% trifluoroacetic acid) was layered over the sample (1 μL), dried and analysed using the MALDI TOF. […]
In an effort to understand the chemical nature of the degradation of 17-69-07-N219 in mouse plasma, samples were analysed using MALDI-TOF for any potential degradation products.

A short description of series [5]: Plasma stability, quantitative LC-MS. In kind it is in vitro ADME, rat. Conditions: Table 16; incubation up to 24 hrs, 4 μM.
For series [6], the target named is T1, MT1-MMP hemopexin domain (Homo sapiens, UniProt P50281).
T1 construct: residues Cys319-Gly511 from the human gene; His6 (N); made in house; host or cells: HEK293 (transient), pEXPR-IBA42 vector
As to the kind of experiment: Competition assay using fluorescence polarisation. Type of series: binding. Conditions: murine, dog, cynomolgus and human MT1-MMP. Put shortly:
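Pre-formed PEX–fluorescent tracer complex titrated with non-fluoresceinated bicyclic peptide, which displaces tracer and lowers fluorescence polarisation. Competitor Kd obtained by fitting to the cubic-equation solution for tracer/titrant/protein equilibria, using tracer Kd from separate direct-binding FP.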
On the technique in general: Fluorescence polarisation rises when a labelled molecule tumbles more slowly, as on binding a larger partner.

Series [7] in a line: Plasma stability, quantitative LC-MS (Method #2). In kind it is in vitro ADME, mouse. As for the experimental part:
[…] […] Prior to LC-MS analysis, samples were defrosted, and mixed with 3 volumes (here, 120 μL) of 1:1 acetonitrile/MeOH water. The milky suspensions were centrifuged for 30 min at 13000 rpm, and peptide-containing supernatants were quantitated for doubly/triply charged species and MS/MS fragments thereof using a Waters Xevo TQ-D instrument, while using a plasma extracted standard curve of the same peptides as a reference. The half-life of degradation in plasma was used to assess the comparative stability of the molecules.

Series [8] deals with T2, hemopexin domain of MT1-MMP (Homo sapiens, UniProt P50281).
T2 construct: residues Cys319-Gly511 from the human gene; His6 (N); made in house; host or cells: HEK293 (transient), pEXPR-IBA42 vector
As to the kind of experiment: Hemopexin binding assay using the alpha screen. As to conditions: qualitative. As for the experimental part:
Employing previously established methods for generating bicyclic peptide phage libraries, selections were performed against the human hemopexin domain of MT1-MMP.
The most frequently occurring sequences were assayed for Hemopexin binding using the alpha screen, where all signals were high compared to the original 17-69 sequence (see Table 1 and FIG. 14): […]

Series [9] is described as follows: plasma samples taken at t=0.5, 1 and 2 hrs from intravenously dosed mice. Conditions: male CD1 mice, up to 2 hrs.
Series [10] in a line: plasma samples from mice dosed intravenously (0.5, 1 and 2 hrs). Conditions: male CD1 mice, up to 2 hrs.

Entries after “also recorded” stand apart in the source; their conditions may differ. Numbered stars: 1 amine (or outer) side, 2 acyl side, 3 side chain; on linkers, the order of the positions; unused ones are H or OH. Bridge positions count the residues as written; N and C are the ends. Square brackets hold non-standard residues; d marks the D form. Peptide text beside a SMILES is read from it. TBMB = c1c(C[*:1])cc(C[*:3])cc1C[*:2]; Sar = CNCC(=O)O

Take “βAla-Sar10-A-C(D-Ala)NE(1Nal)(D-Ala)CEDFYD(tBuGly)C”: the not cleaved result in [1] is “stable; t1/2 >36 hrs (human plasma)”; in [2], “stable; t1/2 >36 hrs (rat plasma)”; in [3] it was “stable; t1/2 >36 hrs (mouse plasma)”.

In the case of `CC[C@H](C)[C@@H]1NC(=O)[C@H](CC(=O)O)NC(=O)[C@H](Cc2ccc(O)cc2)NC(=O)[C@H](Cc2ccccc2)NC(=O)[C@H](CC(=O)O)NC(=O)[C@H](CCC(=O)O)NC(=O)[C@@H]2CSCc3cc(cc(c3)CSC[C@H](NC(=O)[C@H](C)NC(=O)CN(C)C(=O)CN(C)C(=O)CN(C)C(=O)CN(C)C(=O)CN(C)C(=O)CN(C)C(=O)CN(C)C(=O)CN(C)C(=O)CN(C)C(=O)CN(C)C(=O)CN)C(=O)N[C@@H](Cc3ccc(O)cc3)C(=O)N[C@@H](CC(N)=O)C(=O)N[C@@H](CCC(=O)O)C(=O)N[C@@H](Cc3ccccc3)C(=O)NCC(=O)N2)CSC[C@@H](C(N)=O)NC1=O` [17-69-07-N219, G-Sar10-A-(17-69-07)] (H-G[Sar][Sar][Sar][Sar][Sar][Sar][Sar][Sar][Sar][Sar]ACYNEFGCEDFYDIC-NH2; linker 13-19-26 via TBMB), the degradation products entry in [4] was “possible loss of tyrosine”. In series [5], the “t1/2 (hrs) (rat plasma)” value is recorded as 3.7 ± 0^ hrs. The species cross-reactivity entry in [6] is “fully cross reactive”. Besides, in series [7] (Table 16, incubation up to 24 hrs, 4 μM), the “t1/2 (hrs) (mouse plasma)” value was 3.9 ± 0.3 h. The “half-life in mouse plasma” value in [7] (ex vivo mouse plasma at 37° C. (FIG. 1, FIG. 3A)) worked out at 6 h.

For the molecule `CC[C@H](C)[C@@H]1NC(=O)[C@H](CC(=O)O)NC(=O)[C@H](Cc2ccc(O)cc2)NC(=O)[C@H](Cc2ccccc2)NC(=O)[C@H](CC(=O)O)NC(=O)[C@H](CCC(=O)O)NC(=O)[C@@H]2CSCc3cc(cc(c3)CSC[C@H](N)C(=O)N[C@@H](CCCCN)C(=O)N[C@@H](CC(N)=O)C(=O)N[C@@H](CCCNC(=N)N)C(=O)NCC(=O)N[C@@H](Cc3ccccc3)C(=O)NCC(=O)N2)CSC[C@@H](C(N)=O)NC1=O` [Peptide 17-69] (H-CKNRGFGCEDFYDIC-NH2; linker 1-8-15 via TBMB), the “alpha screen binding signal” value in series [8] is “qualitative binding to the target was verified”.

Consider Ac-CYNEFGCEDFYDIC, for which the fragment found result was “excision of YNE in loop 1, major; also recorded: excision of YNEF in loop 1; also recorded: excision of YNEFG in loop 1 (the entire loop is removed); also recorded: excision of YD in loop 2, minor; also recorded: excision of FYD in loop 2, minor; also recorded: excision of YDI in loop 2, minor; also recorded: excision of EDFYDI in loop 2 (the entire loop is removed), minor” in series [9] and “excision of YNEFG in loop 1 (entire loop removed); also recorded: excision of EDFYDI in loop 2 (entire loop removed), minor” in [10].
